From PMC9501983, “Transport and Permeation Properties of Dapivirine: Understanding Potential Drug-Drug Interactions” (Pharmaceutics, 2022)

How the values were obtained:
[1] = test system: UGT enzymes; design: method as in PMID 34959473; conditions: cited from earlier work
[2] = target: T1, MRP4 (Homo sapiens, UniProt O15439); assay: in vitro
T1 sequence (O15439 1-1325): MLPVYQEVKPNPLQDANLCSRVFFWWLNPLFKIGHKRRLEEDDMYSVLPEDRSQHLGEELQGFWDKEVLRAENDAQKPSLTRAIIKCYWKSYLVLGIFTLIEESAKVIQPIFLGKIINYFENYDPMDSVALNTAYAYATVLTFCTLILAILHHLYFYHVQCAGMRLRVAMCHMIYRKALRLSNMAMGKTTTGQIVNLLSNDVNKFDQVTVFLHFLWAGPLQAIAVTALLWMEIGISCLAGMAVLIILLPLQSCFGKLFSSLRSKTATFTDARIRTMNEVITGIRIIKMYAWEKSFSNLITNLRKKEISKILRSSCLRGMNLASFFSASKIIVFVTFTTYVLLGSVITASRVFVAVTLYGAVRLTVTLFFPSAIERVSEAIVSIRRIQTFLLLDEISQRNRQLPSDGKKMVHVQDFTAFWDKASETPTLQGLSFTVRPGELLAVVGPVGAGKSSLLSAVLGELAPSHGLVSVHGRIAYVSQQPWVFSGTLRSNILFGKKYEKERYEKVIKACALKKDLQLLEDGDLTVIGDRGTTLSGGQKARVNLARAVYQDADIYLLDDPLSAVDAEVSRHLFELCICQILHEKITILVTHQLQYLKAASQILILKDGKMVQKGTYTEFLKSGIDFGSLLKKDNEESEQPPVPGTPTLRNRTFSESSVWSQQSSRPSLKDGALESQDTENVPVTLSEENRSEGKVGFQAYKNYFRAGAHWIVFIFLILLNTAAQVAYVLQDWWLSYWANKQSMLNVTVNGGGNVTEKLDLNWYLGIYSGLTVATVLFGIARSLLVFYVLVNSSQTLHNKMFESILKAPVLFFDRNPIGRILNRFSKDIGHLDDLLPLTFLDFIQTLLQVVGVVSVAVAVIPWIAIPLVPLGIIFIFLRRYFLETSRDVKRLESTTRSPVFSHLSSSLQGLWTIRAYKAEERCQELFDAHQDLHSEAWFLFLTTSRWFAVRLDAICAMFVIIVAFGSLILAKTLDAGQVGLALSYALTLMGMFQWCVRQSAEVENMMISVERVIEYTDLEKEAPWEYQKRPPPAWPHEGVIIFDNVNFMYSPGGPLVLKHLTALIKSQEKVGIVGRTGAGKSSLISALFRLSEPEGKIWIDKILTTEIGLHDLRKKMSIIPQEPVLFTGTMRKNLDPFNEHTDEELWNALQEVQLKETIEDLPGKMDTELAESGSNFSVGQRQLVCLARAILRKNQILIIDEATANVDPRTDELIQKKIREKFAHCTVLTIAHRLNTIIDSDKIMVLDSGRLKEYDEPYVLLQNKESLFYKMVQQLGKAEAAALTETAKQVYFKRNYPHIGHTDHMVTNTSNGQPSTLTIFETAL
Experimental: (§1) To investigate if DPV was a substrate or inhibitor of MRP1 or MRP4, ATP-dependent and independent uptake of DPV (in the substrate study) or estradiol 17 β-D-glucuronide (a known MRP1/MRP4 substrate in the inhibitor study) was measured using 50 μg MRP1, MRP4, and control vesicles. […] The uptake assay was performed at a total volume of 50 μL with either 4 mM ATP or AMP, 2 mM glutathione, 10 μM DPV or estradiol 17 β-D-glucuronide as substrates, with and without 20 μM DPV or MK571 as inhibitors. […] To quantify the uptake amount of DPV or estradiol 17 β-D-glucuronide, 4 μCi mL^−1 3H-DPV or ^3H- estradiol 17 β-D-glucuronide was added to the assay mixture.
(§2) The vesicular uptake assays were performed under the above-mentioned conditions. The membrane vesicles were first incubated with respective inhibitor solution or blank assay buffer. The reaction was then initiated by adding the remaining components of the assay mixture to the vesicles and incubated at 37 °C for 3 min. To terminate the reaction, 200 μL ice-cold buffer was added to each well. The samples were then transferred to a glass fiber filter plate and washed 5 times by rapid filtration using a vacuum manifold (IBI Scientific, Dubuque, IA, USA). To quantify ^3H-DPV and ^3H-estradiol 17 β-D-glucuronide uptake, the washed vesicles were lysed with scintillation cocktail at room temperature for 20 min. The collected samples were analyzed on an LS6500 liquid scintillation counter (Beckman Coulter, Brea, CA, USA).
(§3) If ATP-dependent uptake was observed, the uptake amount by active transport was calculated using Equation (1):(1) Normalized uptake=mean uptake with ATP−mean uptake with AMP

[3] = target: MRP1 (Homo sapiens, UniProt P33527)
MRP1, sequence (P33527 whole entry): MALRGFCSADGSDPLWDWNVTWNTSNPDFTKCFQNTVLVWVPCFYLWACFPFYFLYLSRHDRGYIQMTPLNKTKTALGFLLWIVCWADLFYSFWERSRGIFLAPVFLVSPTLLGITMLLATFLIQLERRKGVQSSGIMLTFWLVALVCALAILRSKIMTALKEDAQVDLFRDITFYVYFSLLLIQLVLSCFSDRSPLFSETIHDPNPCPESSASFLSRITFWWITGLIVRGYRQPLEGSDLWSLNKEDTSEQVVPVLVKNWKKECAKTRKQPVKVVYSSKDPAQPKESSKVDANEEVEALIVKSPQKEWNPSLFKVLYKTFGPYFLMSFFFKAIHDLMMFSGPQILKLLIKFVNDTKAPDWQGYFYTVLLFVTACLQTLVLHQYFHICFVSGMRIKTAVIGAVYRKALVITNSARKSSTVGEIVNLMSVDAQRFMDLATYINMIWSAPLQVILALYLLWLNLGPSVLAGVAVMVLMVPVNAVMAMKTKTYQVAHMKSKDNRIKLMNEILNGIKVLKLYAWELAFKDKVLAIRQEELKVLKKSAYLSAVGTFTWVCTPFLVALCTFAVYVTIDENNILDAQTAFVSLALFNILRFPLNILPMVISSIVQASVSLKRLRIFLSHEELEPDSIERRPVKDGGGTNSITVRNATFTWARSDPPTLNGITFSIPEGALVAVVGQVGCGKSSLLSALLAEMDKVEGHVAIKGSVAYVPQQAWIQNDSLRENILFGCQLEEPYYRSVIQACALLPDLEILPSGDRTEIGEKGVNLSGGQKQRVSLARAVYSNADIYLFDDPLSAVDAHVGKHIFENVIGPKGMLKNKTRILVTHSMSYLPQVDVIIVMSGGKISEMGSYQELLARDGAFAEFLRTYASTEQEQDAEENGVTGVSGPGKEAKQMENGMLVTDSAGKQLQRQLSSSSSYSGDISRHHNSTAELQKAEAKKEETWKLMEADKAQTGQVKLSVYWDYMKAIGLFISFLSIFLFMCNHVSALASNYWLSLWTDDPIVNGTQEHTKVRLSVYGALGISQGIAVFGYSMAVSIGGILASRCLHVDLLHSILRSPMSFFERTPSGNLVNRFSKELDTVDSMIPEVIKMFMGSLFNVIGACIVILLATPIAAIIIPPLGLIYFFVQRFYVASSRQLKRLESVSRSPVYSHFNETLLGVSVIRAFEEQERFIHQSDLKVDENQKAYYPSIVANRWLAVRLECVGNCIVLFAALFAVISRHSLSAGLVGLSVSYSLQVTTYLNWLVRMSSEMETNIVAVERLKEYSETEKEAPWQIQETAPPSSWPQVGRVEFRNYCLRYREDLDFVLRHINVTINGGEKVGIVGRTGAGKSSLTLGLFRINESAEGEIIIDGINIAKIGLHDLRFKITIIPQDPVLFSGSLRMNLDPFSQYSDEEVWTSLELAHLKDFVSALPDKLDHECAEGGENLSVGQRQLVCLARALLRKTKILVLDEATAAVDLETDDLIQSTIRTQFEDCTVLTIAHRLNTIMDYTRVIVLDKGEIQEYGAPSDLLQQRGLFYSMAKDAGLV
Experimental: as §1, §2, §3

[4] = test system: CYP1A1; design: method as in PMID 34959473; conditions: cited from earlier work
[5] = 10 μM substrate, 20 μM test inhibitor, ATP minus AMP

Substrate status for MRP4 [2]: not a substrate | Normalized estradiol 17 β-D-glucuronide uptake by MRP4 vesicles co-incubated with inhibitor [2, 5]: 14.08 fmol | Active uptake of estradiol 17 β-D-glucuronide by MRP4 vesicles, reduced to % of control ([2]; 20 µM): not significantly affected | Substrate status for MRP1 [3]: not a substrate | Normalized estradiol 17 β-D-glucuronide uptake by MRP1 vesicles co-incubated with inhibitor [3, 5]: 35.83 fmol | Active uptake of estradiol 17 β-D-glucuronide by MRP1 vesicles, reduced to % of control ([3]; 20 µM): not significantly affected
SMILES: Cc1cc(C)c(Nc2ccnc(Nc3ccc(C#N)cc3)n2)c(C)c1 [DPV, dapivirine]
Substrate of UGT enzymes [1]: not a substrate | Substrate of CYP1A1 [4]: substrate
